In patent US9630949B2, “Oxoazetidine derivatives, process for the preparation thereof and use thereof in human medicine and in cosmetics” (GALDERMA RESEARCH & DEVELOPMENT, priority 2008, dated 2017):

How the values were obtained:
hMC4R = hMC4R (Homo sapiens (Human), UniProt P32245); assay: Transactivation test: melanocortin receptors (pCRE-Luc luciferase reporter), hMC4R; assay type: cell-based; conditions: HEK293 transfected with pCRE-Luc and hMC4R; products tested alone (agonist), 6 h incubation; % activity vs NDP-MSH 10 nM; IA: inactive
Protocol: Transactivation Test: Melanocortin Receptors
HEK293 lines are transfected with the pCRE-Luc and hMC1R, hMC3R, hMC4R or hMC5R vectors. The cells are cultured at 37° C., 5% CO2, in DMEM medium supplemented with 10% of foetal calf serum.
In the presence of an activator (agonist), the melanocortin receptor will activate the cAMP pathway which, via the CRE-Luc vector, will result in the synthesis of luciferase. After the addition of a lysis buffer containing a luminescent substrate for luciferase, it will be possible to measure the luminescence proportional to the degree of activation or of inhibition of the receptor.
The products are solubilized at 10 mM in DMSO. They are tested in the form of dose-response at a final DMSO concentration of 0.1%. The range comprising 10 points and one zero begins at 10 μM with 4-fold dilutions. For testing agonists, the products are tested alone. For determining the behaviour of antagonists, the products of interest are tested in the presence of 1 nM NDP-MSH (reference agonist). The cells are seeded at a rate of 5000 cells per well (384 well plate) in serum-free DMEM medium, and incubated overnight at 37° C., 5% CO2.
The products and the reference ligand (NDP-MSH) are added the following day, and the plates are again incubated for 6 h at 37° C., 5% CO2. After the addition of lysis buffer containing luciferin, the plates are read on a Top-Count instrument. The results are standardized as % activity using the 100% (cells+NDP-MSH at 10 nM) and 0% (cells alone) controls. An EC50 is calculated for each product using the XLFit software. The results are given in nM.

hMC1R = hMC1R (Homo sapiens (Human), UniProt Q01726); assay: Transactivation test: melanocortin receptors (pCRE-Luc luciferase reporter), hMC1R; assay type: cell-based; conditions: HEK293 transfected with pCRE-Luc and hMC1R; products tested alone (agonist), 6 h incubation; % activity vs NDP-MSH 10 nM; IA: inactive
Method in brief: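 HEK293 cells carrying the pCRE-Luc reporter and hMC1R vectors were grown in DMEM with 10% foetal calf serum at 37° C., 5% CO2, then plated at 5000 cells per well in 384-well plates in serum-free DMEM overnight. Products dissolved at 10 mM in DMSO were added alone as 10-point, 4-fold dilutions from 10 μM (0.1% DMSO) and incubated 6 h. Luciferase luminescence was read on Top-Count after lysis with luciferin, normalized to NDP-MSH 10 nM (100%) and cells alone (0%), and EC50 in nM derived with XLFit.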

Chain of hMC1R (Q01726 whole entry): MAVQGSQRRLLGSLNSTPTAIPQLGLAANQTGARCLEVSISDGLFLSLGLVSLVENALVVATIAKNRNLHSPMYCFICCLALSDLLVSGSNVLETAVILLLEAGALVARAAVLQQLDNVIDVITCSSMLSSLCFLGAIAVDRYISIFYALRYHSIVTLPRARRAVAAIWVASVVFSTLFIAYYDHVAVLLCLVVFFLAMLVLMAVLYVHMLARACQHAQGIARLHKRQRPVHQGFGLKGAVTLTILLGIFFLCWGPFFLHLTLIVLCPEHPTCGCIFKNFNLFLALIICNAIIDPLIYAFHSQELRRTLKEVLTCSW
Chain of hMC4R (P32245 whole entry): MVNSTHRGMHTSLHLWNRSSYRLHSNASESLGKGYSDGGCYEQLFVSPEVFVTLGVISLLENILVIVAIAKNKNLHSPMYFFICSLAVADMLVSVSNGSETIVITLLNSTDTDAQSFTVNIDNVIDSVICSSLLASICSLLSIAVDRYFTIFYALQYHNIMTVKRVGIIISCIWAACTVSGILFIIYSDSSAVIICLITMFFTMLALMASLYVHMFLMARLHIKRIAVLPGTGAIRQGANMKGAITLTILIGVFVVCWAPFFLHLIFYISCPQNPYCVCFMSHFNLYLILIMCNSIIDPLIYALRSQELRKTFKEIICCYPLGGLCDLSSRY

| Structure (SMILES) | EC50 (hMC4R) [nM] | EC50 (hMC1R) [nM] |
| --- | --- | --- |
| CCCCOC1(c2ccc(F)cc2)CN(C(=O)[C@@H](Cc2ccc(F)cc2)NC(=O)CCc2c[nH]cn2)C1 [Compound 32, N-[(R)-2-[3-butoxy-3-(4-fluorophenyl)azetidin-1-yl]-1-(4-fluorobenzyl)-2-oxoethyl]-3-(1H-imidazol-4-yl)propionamide] | 4000 | 1000 |
| CCCCCC1(C2CCCCC2)CN(C(=O)[C@@H](Cc2ccc(OC)cc2)NC(=O)CCc2c[nH]cn2)C1 [Compound 66, N-[(R)-2-(3-cyclohexyl-3-pentylazetidin-1-yl)-1-(4-methoxybenzyl)-2-oxoethyl]-3-(1H-imidazol-4-yl)propionamide] | 250 | 250 |
| CCCCOC1(c2ccccc2)CN(C(=O)[C@@H](CC2CCCCC2)NC(=O)CCc2c[nH]cn2)C1 [Compound 18, N-[(R)-2-(3-butoxy-3-phenylazetidin-1-yl)-1-cyclohexylmethyl-2-oxoethyl]-3-(1H-imidazol-4-yl)propionamide] | 8000 | 8000 |
| CCCCCCOC1(c2ccccc2C)CN(C(=O)[C@@H](Cc2ccc(OC)cc2)NC(=O)CCc2c[nH]cn2)C1 [Compound 25, N-[(R)-2-(3-hexyloxy-3-o-tolylazetidin-1-yl)-1-(4-methoxybenzyl)-2-oxoethyl]-3-(1H-imidazol-4-yl)propionamide] | 8000 | 1000 |
| CCCCOC1(c2ccccc2C)CN(C(=O)[C@@H](Cc2ccc(OC)cc2)NC(=O)CCc2cncn2C)C1 [Compound 67, N-[(R)-2-(3-butoxy-3-o-tolylazetidin-1-yl)-1-(4-methoxybenzyl)-2-oxoethyl]-3-(3-methyl-3H-imidazol-4-yl)propionamide] | 500 | 500 |
| CCCCCOC1(c2ccccc2C)CN(C(=O)[C@@H](Cc2ccc(OC)cc2)NC(=O)CCc2c[nH]cn2)C1 [Compound 24, N-[(R)-1-(4-methoxybenzyl)-2-oxo-2-(3-pentyloxy-3-o-tolylazetidin-1-yl)ethyl]-3-(1H-imidazol-4-yl)propionamide] | 4000 | 250 |
| CCCCOC1(c2ccccc2C)CN(C(=O)[C@@H](Cc2ccc(OC)cc2)NC(=O)C=Cc2c[nH]cn2)C1 [Compound 48, N-[(R)-2-(3-butoxy-3-o-tolylazetidin-1-yl)-1-(4-methoxybenzyl)-2-oxoethyl]-3-(1H-imidazol-4-yl)acrylamide] | 500 | 4000 |
| CCCCOC1(c2ccccc2C)CN(C(=O)[C@@H](Cc2ccc(OC)cc2)NC(=O)CCc2c[nH]cn2)C1 [Compound 15, N-[(R)-2-(3-butoxy-3-o-tolylazetidin-1-yl)-1-(4-methoxybenzyl)-2-oxoethyl]-3-(1H-imidazol-4-yl)propionamide] | 4000 | 120 |
| CCCCCC1(c2ccccc2)CN(C(=O)[C@@H](Cc2cccc(F)c2)NC(=O)CCc2c[nH]cn2)C1 [Compound 56, N-[(R)-1-(3-fluorobenzyl)-2-oxo-2-(3-pentyl-3-phenylazetidin-1-yl)ethyl]-3-(1H-imidazol-4-yl)propionamide] | 8000 | 4000 |
| CCCCOC1(c2ccccc2C)CN(C(=O)[C@H](Cc2ccc(OC)cc2)NC(=O)CCc2c[nH]cn2)C1 [Compound 16, N-[(S)-2-(3-butoxy-3-o-tolylazetidin-1-yl)-1-(4-methoxybenzyl)-2-oxoethyl]-3-(1H-imidazol-4-yl)propionamide] | 15000 | 2000 |
| COc1ccc(C[C@@H](NC(=O)CCc2c[nH]cn2)C(=O)N2CC(OCCCC(F)(F)F)(c3ccccc3C)C2)cc1 [Compound 78] | 2000 | 120 |
| CCOC1(c2ccccc2C)CN(C(=O)[C@@H](Cc2ccc(OC)cc2)NC(=O)CCc2c[nH]cn2)C1 [Compound 17, N-[(R)-2-(3-ethoxy-3-o-tolylazetidin-1-yl)-1-(4-methoxybenzyl)-2-oxoethyl]-3-(1H-imidazol-4-yl)propionamide] | 8000 | 250 |
| CCCCCC1(c2ccccc2)CN(C(=O)[C@@H](Cc2ccc(Cl)c(Cl)c2)NC(=O)CCc2c[nH]cn2)C1 [Compound 52, N-[(R)-1-(3,4-dichlorobenzyl)-2-oxo-2-(3-pentyl-3-phenylazetidin-1-yl)ethyl]-3-(1H-imidazol-4-yl)propionamide] | 250 | 2000 |
| CCCCOC1(c2ccccc2C)CN(C(=O)[C@@H](Cc2ccc(OC)cc2)NC(=O)[C@@H](O)Cc2c[nH]cn2)C1 [Compound 71, (S)-N-[(R)-2-(3-Butoxy-3-o-tolylazetidin-1-yl)-1-(4-methoxybenzyl)-2-oxoethyl]-2-hydroxy-3-(1H-imidazol-4-yl)propionamide] | 4000 | 60 |
| CCCCCC1(c2ccc(F)cc2F)CN(C(=O)[C@@H](Cc2ccc(OC)cc2)NC(=O)CCc2c[nH]cn2)C1 [Compound 49, N-[(R)-2-[3-(2,4-difluorophenyl)-3-pentylazetidin-1-yl]-1-(4-methoxybenzyl)-2-oxoethyl]-3-(1H-imidazol-4-yl)propionamide] | 2000 | 15 |
| COc1ccc(C[C@H](NC(=O)CCc2c[nH]cn2)C(=O)N2CC(OCC3CC3)(c3ccccc3C)C2)cc1 [Compound 14, N-[(S)-2-(3-cyclopropylmethoxy-3-o-tolylazetidin-1-yl)-1-(4-methoxybenzyl)-2-oxoethyl]-3-(1H-imidazol-4-yl)propionamide] | 15000 | 2000 |
| CCCCOC1(c2ccccc2)CN(C(=O)[C@@H](Cc2ccc(Cl)cc2Cl)NC(=O)CCc2c[nH]cn2)C1 [Compound 19, N-[(R)-2-(3-butoxy-3-phenylazetidin-1-yl)-1-(2,4-dichlorobenzyl)-2-oxoethyl]-3-(1H-imidazol-4-yl)propionamide] | 120 | 2000 |
| COc1ccc(C[C@H](NC(=O)[C@H](Cc2c[nH]cn2)NC(=O)c2ccccc2)C(=O)N2CC(O)(C3CCCCC3)C2)cc1 [Compound 7, N-[(S)-1-[(S)-2-(3-cyclohexyl-3-hydroxyazetidin-1-yl)-1-(4-methoxybenzyl)-2-oxoethylcarbamoyl]-2-(1H-imidazol-4-yl)ethyl]benzamide] | 4000 | 500 |
| CCCCOC1(c2ccccc2C)CN(C(=O)C(Cc2ccc(OC)cc2)NC(=O)CC(CC)c2c[nH]cn2)C1 (centres unmarked) [Compound 63, N-[2-(3-butoxy-3-o-tolylazetidin-1-yl)-1-(4-methoxybenzyl)-2-oxoethyl]-3-(1H-imidazol-4-yl)pentyramide] | 500 | 500 |
